{"source": "patent US20220048878A1", "about": "“IMPROVEMENT IN OR RELATING TO ORGANIC COMPOUNDS” (GIVAUDAN SA, priority 2018, published 2022)", "key": {"[1]": {"settings": "cited from earlier work"}, "male rats [2]": {"system": "male rats", "settings": "cited from earlier work"}, "male rats [3]": {"system": "male rats", "experiment": "Repeated dose 28-day oral toxicity study in rats (OECD Guideline 407), reproductive organs and sperm analysis", "format": "in vivo", "settings": "for Motile Sperms (%) / Sperm cells with normal morphology (count/total) / Sperm cells with normal morphology (percent) / Number of sperms per gram: male rats", "procedure": "An isomeric mixture obtained according to Example 1 b was tested in a repeated dose 28-day oral toxicity study in rats according to OECD Guideline 407 (OECD, Paris, October 2008). Groups of animals (n=5) were fed with a diet containing the test item to obtain a daily ingested dose of 100 mg/kg body weight/day, 300 mg/kg body weight/day and 1000 mg/kg body weight/day. The animals were treated for 28 days. After this period, they were sacrificed and their organs were examined by pathological examination for gross lesions, weight changes and further investigated by histopathology. The seminal fluid from the epididymis was sampled and analyzed microscopically for number, morphology and motility of sperms.\nAll treated groups were compared to the control group with a Dunnett-test based on pooled variance and a Steel-test."}, "[4]": {"settings": "male rats, 1000 mg/kg body weight per day"}, "[5]": {"settings": "male rats, 300 or 1000 mg/kg body weight per day"}, "[6]": {"settings": "rats, 100, 300 and 1000 mg/kg body weight/day, 28 days"}}, "note": "Where two headings read alike, the source gives them in different places."}
{"molecule": "CC(C)=CC1CC(C)CCO1", "note": "(racemic) [Rose Oxide, 4-methyl-2-(2-methylprop-1-en-1-yl)tetrahydro-2H-pyran]", "values": [{"measurement": "Time to evaporate on a smelling strip", "setting": "[1]; smelling strip", "result": "≤ 30", "unit": "min"}, {"measurement": "Effects on sperm formation", "setting": "male rats [2]; 28 days, OECD guideline 407, middle (300 mg/kg bw/d) and high (1000 mg/kg bw/d) dose", "result": "clear-cut effects on sperm formation"}, {"measurement": "Classification (REACH/ECHA)", "setting": "male rats [2]; classification provided by companies to ECHA", "result": "CMR2"}, {"measurement": "Severity of immature ducts in distal corpus and/or cauda epididymis (histopathology)", "setting": "male rats [2]; male rats, 300 mg/kg body weight per day", "result": "minimal to slight"}, {"measurement": "Severity of immature ducts in distal corpus and/or cauda epididymis (histopathology)", "setting": "male rats [2]; [4]", "result": "slight to severe"}, {"measurement": "Weight increase of the epididymis, absolute", "setting": "male rats [2]; [4]", "result": 33, "unit": "%"}, {"measurement": "Weight increase of the epididymis, relative", "setting": "male rats [2]; [4]", "result": 26, "unit": "%"}, {"measurement": "Sperm function and morphology in the cauda epididymis", "setting": "male rats [2]; [5]", "result": "adversely affected"}, {"measurement": "Sperm numbers", "setting": "male rats [2]; [5]", "result": "significantly reduced"}]}
{"molecule": "CCC(C)=C[C@@H]1C[C@H](C)CCO1", "note": "(relative stereo) [rel-(2S,4R)-4-methyl-2-(2-methylbut-1-en-1-yl)tetrahydro-2H-pyran]", "values": [{"measurement": "Suppression of sperm formation", "setting": "male rats [3]; rats", "result": "does not suppress sperm formation"}]}
{"molecule": "CC1CCOC(c2ccccc2)C1", "note": "(stereo not drawn) [Doremox®, 4-methyl-2-phenyltetrahydro-2H-pyran]", "values": [{"measurement": "Lastingness compared to Rose Oxide", "setting": "[1]; background statement", "result": "too long-lasting compared to Rose Oxide"}]}
{"molecule": "CCC(C)=CC1CC(C)CCO1", "note": "(stereo not drawn) [Example 1b, 4-methyl-2-(2-methylbut-1-en-1-yl)tetrahydro-2H-pyran]", "values": [{"measurement": "Effect on key parameters of male fertility", "setting": "male rats [3]; 28 days, up to 1000 mg/kg bw/d", "result": "no effect"}, {"measurement": "Difference in sperm parameters between control group and treated groups", "setting": "male rats [3]; Dunnett-test and Steel-test, p=0.05 significance level", "result": "No significant differences"}, {"measurement": "Motile Sperms (%)", "setting": "male rats [3]; 100 mg/kg bw/d, 28 days", "result": "63 ± 12", "unit": "%"}, {"measurement": "Sperm cells with normal morphology (count/total)", "setting": "male rats [3]; 100 mg/kg bw/d, 28 days", "result": "156/246"}, {"measurement": "Sperm cells with normal morphology (percent)", "setting": "male rats [3]; 100 mg/kg bw/d, 28 days", "result": "(63.4%)"}, {"measurement": "Motile Sperms (%)", "setting": "male rats [3]; 300 mg/kg bw/d, 28 days", "result": "47 ± 13", "unit": "%"}, {"measurement": "Sperm cells with normal morphology (count/total)", "setting": "male rats [3]; 300 mg/kg bw/d, 28 days", "result": "170/210"}, {"measurement": "Sperm cells with normal morphology (percent)", "setting": "male rats [3]; 300 mg/kg bw/d, 28 days", "result": "(81.0%)"}, {"measurement": "Motile Sperms (%)", "setting": "male rats [3]; 1000 mg/kg bw/d, 28 days", "result": "53 ± 23", "unit": "%"}, {"measurement": "Sperm cells with normal morphology (count/total)", "setting": "male rats [3]; 1000 mg/kg bw/d, 28 days", "result": "158/197"}, {"measurement": "Sperm cells with normal morphology (percent)", "setting": "male rats [3]; 1000 mg/kg bw/d, 28 days", "result": "(80.2%)"}, {"measurement": "Number of sperms per gram", "setting": "male rats [3]; n = 5, 100 mg/kg bw/d in diet, 28 days", "result": "3.9 ± 0.9 × 10^8"}, {"measurement": "Number of sperms per gram", "setting": "male rats [3]; n = 5, 300 mg/kg bw/d in diet, 28 days", "result": "4.0 ± 0.9 × 10^8"}, {"measurement": "Number of sperms per gram", "setting": "male rats [3]; n = 5, 1000 mg/kg bw/d in diet, 28 days", "result": "4.0 ± 1.9 × 10^8"}, {"measurement": "Macroscopic changes to reproductive organs", "setting": "male rats [3]; [6]", "result": "no macroscopic changes"}, {"measurement": "Weight of the reproductive organs versus control group", "setting": "male rats [3]; [6]", "result": "not different from the control group"}]}
